The supplement of paper PMC4649846
Where “and” joins values, the source holds several entries; their conditions need not be identical. Equal entries are not always repeated.

Legend:
MDA-MB-231 [1] = details: incubation time: 72 h
Procedure, shortened: (§1)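 MDA-MB-231 cells were transfected with siRNA against BRCA1 or with non-targeting control siRNA, and a day later were seeded at 4000 cells per well into 384-well plates containing compounds at 5 concentrations. Plates were kept for 72 h at 37 °C and 5% CO2, after which viability was measured by CellTiter-Blue fluorescence. Logistic dose–response fits in Dotmatics Studies gave the IC50 and the drug sensitivity score, the latter being curve area relative to a reference area and normalised by log of top response.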

MDA-MB-231 [2] = assay: drug sensitivity score (DSS); higher = more sensitive; extreme values may be limits of the assay; details: incubation time: 72 h
Procedure, shortened: as §1

[3] = siRNA: siControl (non-targeting)

SMILES	IC50 of cell viability (MDA-MB-231 [1]; siRNA: siBRCA1)	IC50 of cell viability (MDA-MB-231 [1]; [3]) [µM]	drug sensitivity score (MDA-MB-231 [2]; siRNA: siBRCA1)	drug sensitivity score (MDA-MB-231 [2]; [3])
C[C@]12CC[C@@H]3c4ccc(O)cc4C[C@@H](CCCCCCCCC[S+]([O-])CCCC(F)(F)C(F)(F)F)[C@H]3[C@@H]1CC[C@@H]2O (some centres not stated) [Fulvestrant]	> 4.17 µM	> 4.17	0	0
COc1cc(OC2CCN(C)CC2)ccc1Nc1ncc2c(n1)n(C1CCCC1)c(=O)n2C [AZ 3146]	> 4.17 µM	> 4.17	0	0
CN(C)CCN1C(=O)c2cccc3cc(N)cc(c23)C1=O [Amonafide]	1.79 µM	2.16	8.98	6.72
Clc1ccc(C(c2ccccc2Cl)C(Cl)Cl)cc1 (configuration not stated) [Mitotane]	> 4.17 µM	> 4.17	1.03	0
CCc1c2c(nc3ccc(OC(=O)N4CCC(N5CCCCC5)CC4)cc13)-c1cc3c(c(=O)n1C2)COC(=O)[C@]3(O)CC [Irinotecan]	0.76 µM	0.576	6.18	3.11
c1ccc2c(CCNc3ccc(Nc4ccncc4)cc3)c[nH]c2c1 [Serdemetan]	> 4.17 µM	2.56	4.84	6.59
COc1cc2c(Oc3ccc(NC(=O)C4(C(=O)Nc5ccc(F)cc5)CC4)cc3F)ccnc2cc1OCCCN1CCOCC1 [Foretinib]	0.503 µM	0.585	13.6	12.8
Cc1ccc(-c2cc(C(F)(F)F)nn2-c2ccc(S(N)(=O)=O)cc2)cc1 [Celecoxib]	1.35 µM	> 4.17	3.29	0
CC[C@@H]1C(=O)N(C)c2cnc(Nc3ccc(C(=O)NC4CCN(C)CC4)cc3OC)nc2N1C1CCCC1 [BI 2536]	0.00567 µM	0.00308	23.3	24.9
Cn1nnc2c(C(N)=O)ncn2c1=O [Temozolomide]	> 4.17 µM	> 4.17	0	0
N[C@@H](CSC(c1ccccc1)(c1ccccc1)c1ccccc1)C(=O)O [S-trityl-L-cysteine]	0.929 µM	0.713	15.2	15.6
CO[C@H]1C[C@@H]2CC[C@@H](C)[C@@](O)(O2)C(=O)C(=O)N2CCCC[C@H]2C(=O)O[C@H]([C@H](C)C[C@@H]2CC[C@@H](OCCO)[C@H](OC)C2)CC(=O)[C@H](C)/C=C(\C)[C@@H](O)[C@@H](OC)C(=O)[C@H](C)C[C@H](C)/C=C/C=C/C=C/1C [Everolimus]	0.00112 µM and < 0.000833 µM	< 0.000833	19.8 and 16.9	21.1 and 21.8
CC(=O)c1c(C)c2cnc(Nc3ccc(N4CCNCC4)cn3)nc2n(C2CCCC2)c1=O	0.125 µM	0.248	6.11	9.43
O=C(c1ccc(OCCN2CCCCC2)cc1)c1c(-c2ccc(O)cc2)sc2cc(O)ccc12 [Raloxifene]	> 4.17 µM	> 4.17	0	0
O=c1[nH]cc(F)c(=O)[nH]1 [Fluorouracil]	> 4.17 µM	> 4.17	1.13	0.956
COc1cc2c(N3CCN(C(=O)Nc4ccc(OC(C)C)cc4)CC3)ncnc2cc1OCCCN1CCCCC1 [Tandutinib]	> 4.17 µM	1.13	0.708	3.18

SMILES	IC50 of cell viability (MDA-MB-231 [1]; siRNA: siBRCA1)	IC50 of cell viability (MDA-MB-231 [1]; [3]) [µM]	drug sensitivity score (MDA-MB-231 [2]; siRNA: siBRCA1)	drug sensitivity score (MDA-MB-231 [2]; [3])
NC(=O)Nc1cc(-c2cccc(F)c2)sc1C(=O)N[C@H]1CCCNC1 [AZD 7762]	0.242 µM	0.582	17.4	13.7
CO[C@@H](C(=O)N1Cc2[nH]nc(NC(=O)c3ccc(N4CCN(C)CC4)cc3)c2C1)c1ccccc1 [Danusertib]	1.91 µM	1.16	6.5	10.1
C=CC[C@@H]1/C=C(\C)C[C@H](C)C[C@H](OC)[C@H]2O[C@@](O)(C(=O)C(=O)N3CCCC[C@H]3C(=O)O[C@H](/C(C)=C/[C@@H]3CC[C@@H](O)[C@H](OC)C3)[C@H](C)[C@@H](O)CC1=O)[C@H](C)C[C@@H]2OC [Tacrolimus]	> 4.17 µM	> 4.17	0	0
C[C@@H](Oc1cc(-c2cnn(C3CCNCC3)c2)cnc1N)c1c(Cl)ccc(F)c1Cl [Crizotinib]	> 4.17 µM	4.07	0.595	4.02
C[C@@H]1C[C@H]2[C@@H]3CCC4=CC(=O)C=C[C@]4(C)[C@@]3(F)[C@@H](O)C[C@]2(C)[C@@]1(O)C(=O)CO [Dexamethasone]	> 4.17 µM	> 4.17	0	0
NC(=O)NO [Hydroxyurea]	> 4.17 µM	> 4.17	0	0
CN1CC[C@H](c2c(O)cc(O)c3c(=O)cc(-c4ccccc4Cl)oc23)[C@H](O)C1 [Alvocidib]	0.181 µM	0.15	18.8	20.2
CC(C)C(=O)Nc1ccc([N+](=O)[O-])c(C(F)(F)F)c1 [Flutamide]	> 4.17 µM	> 4.17	0	0
CCCCCOC(=O)Nc1nc(=O)n([C@@H]2O[C@H](C)[C@@H](O)[C@H]2O)cc1F [Capecitabine]	> 4.17 µM	> 4.17	0	0
Nc1ncn([C@H]2C[C@H](O)[C@@H](CO)O2)c(=O)n1 [Decitabine]	> 4.17 µM	> 4.17		0
Oc1nc(-c2ccc(C(F)(F)F)cc2)nc2c1CSCC2 [XAV-939]	2.82 µM	0.23	1.98	4
C/C(=C\c1csc(C)n1)[C@@H]1C[C@@H]2O[C@]2(C)CCC[C@H](C)[C@H](O)[C@@H](C)C(=O)C(C)(C)[C@@H](O)CC(=O)O1 [Epothilone B (Patupilone)]	0.0294 µM	0.0291	23.4	23.6
Cc1ccc(-n2nc(C(C)(C)C)cc2NC(=O)Nc2ccc(OCCN3CCOCC3)c3ccccc23)cc1 [Doramapimod]	> 4.17 µM	> 4.17	0	0
O=C(/C=C/c1cccc(S(=O)(=O)Nc2ccccc2)c1)NO [Belinostat]	0.757 µM	0.668	12.2	12.9
C[C@]1(O)C[C@@H](c2nc(-c3ccc4ccc(-c5ccccc5)nc4c3)c3c(N)nccn32)C1 [OSI-906]	> 4.17 µM	> 4.17	0	0
CO[C@H]1C[C@@H]2CC[C@@H](C)[C@@](O)(O2)C(=O)C(=O)N2CCCC[C@H]2C(=O)O[C@H]([C@H](C)C[C@@H]2CC[C@@H](OC(=O)C(C)(CO)CO)[C@H](OC)C2)CC(=O)[C@H](C)/C=C(\C)[C@@H](O)[C@@H](OC)C(=O)[C@H](C)C[C@H](C)/C=C/C=C/C=C/1C [Temsirolimus]	0.0039 µM	0.00402	14.6	14.4
